According to patent publication US20260240871A1, “PHARMACEUTICAL COMPOSITION FOR PREVENTION OR TREATMENT OF AGE-RELATED MUSCULOSKELETAL DISORDERS” (SEOUL NATIONAL UNIVERSITY R&DB FOUNDATION, priority 2023, published 2026):

Assays:
[1] = system: DNA damage-induced senescent cells (SEN) and oncogene-induced senescent cells (SEN (OIS)) of human diploid fibroblasts (IMR90, BJ); experiment: SASP factor and senescence marker gene expression (qRT-PCR) in senescent cell models; assay type: cell-based; details: for expression of CDKN2A or CDKN1A: senescent cells; for expression of SASP genes (IL1A, IL1B): senescent cells (SEN), cholesterol depletion, cholesterol stimulation or lovastatin treatment
Description: (§1) DNA damage-induced senescence was induced in human diploid fibroblasts (IMR90, BJ) by treatment with ionizing radiation (12 Gy) or bleomycin (10 μg/ml, for 24 hours). Specifically, IMR90 and BJ cells expressing hTERT (DNA damage-induced senescence; SEN), IMR90 cells co-expressing hTERT and H-RasV12 [oncogene-induced senescence; SEN (OIS)], and replication-exhausted [replicative senescent cells; SEN (REP)] IMR90 cells were prepared. Normal proliferating cells (PRO) were used as the control.
To investigate the functional consequences of age-related changes in cholesterol levels, cellular cholesterol was depleted using methyl-β-cyclodextrin (MβCD), and multiple senescence markers were examined during DNA damage-induced aging, including senescence-associated β-galactosidase (SA-β-Gal) activity, cell cycle arrest, and expression of senescence-associated secretory phenotype (SASP) factors.
To specifically confirm the effect of increased expression of lysosomal ABCA1 on SASP activity, experiments were conducted using probucol, an ABCA1 modulator that has been reported to limit its localization to intracellular compartments including lysosomes, and glyburide, a broad-spectrum inhibitor of the ABC transport protein family that promotes channel closure of ABC transporters. The prepared senescent cell models were treated with probucol (10 μM) and/or glyburide (75 μM), and immunoblotting analysis was performed on lysosome immunoprecipitates (LysoIP).

[2] = molecular target: T1, lysosomal ABCA1 (Homo sapiens, UniProt O95477); experiment: immunoblotting of lysosome immunoprecipitates (LysoIP) in senescent cells; assay type: cell-based; details: senescent cells (SEN); probucol 10 μM, glyburide 75 μM
T1 construct: endogenous ABCA1 was abundantly present in lysosomes; endogenous in cells; host or cells: senescent human diploid fibroblasts (IMR90, BJ; hTERT-expressing, DNA damage-induced senescence)
T1 sequence (O95477 whole entry): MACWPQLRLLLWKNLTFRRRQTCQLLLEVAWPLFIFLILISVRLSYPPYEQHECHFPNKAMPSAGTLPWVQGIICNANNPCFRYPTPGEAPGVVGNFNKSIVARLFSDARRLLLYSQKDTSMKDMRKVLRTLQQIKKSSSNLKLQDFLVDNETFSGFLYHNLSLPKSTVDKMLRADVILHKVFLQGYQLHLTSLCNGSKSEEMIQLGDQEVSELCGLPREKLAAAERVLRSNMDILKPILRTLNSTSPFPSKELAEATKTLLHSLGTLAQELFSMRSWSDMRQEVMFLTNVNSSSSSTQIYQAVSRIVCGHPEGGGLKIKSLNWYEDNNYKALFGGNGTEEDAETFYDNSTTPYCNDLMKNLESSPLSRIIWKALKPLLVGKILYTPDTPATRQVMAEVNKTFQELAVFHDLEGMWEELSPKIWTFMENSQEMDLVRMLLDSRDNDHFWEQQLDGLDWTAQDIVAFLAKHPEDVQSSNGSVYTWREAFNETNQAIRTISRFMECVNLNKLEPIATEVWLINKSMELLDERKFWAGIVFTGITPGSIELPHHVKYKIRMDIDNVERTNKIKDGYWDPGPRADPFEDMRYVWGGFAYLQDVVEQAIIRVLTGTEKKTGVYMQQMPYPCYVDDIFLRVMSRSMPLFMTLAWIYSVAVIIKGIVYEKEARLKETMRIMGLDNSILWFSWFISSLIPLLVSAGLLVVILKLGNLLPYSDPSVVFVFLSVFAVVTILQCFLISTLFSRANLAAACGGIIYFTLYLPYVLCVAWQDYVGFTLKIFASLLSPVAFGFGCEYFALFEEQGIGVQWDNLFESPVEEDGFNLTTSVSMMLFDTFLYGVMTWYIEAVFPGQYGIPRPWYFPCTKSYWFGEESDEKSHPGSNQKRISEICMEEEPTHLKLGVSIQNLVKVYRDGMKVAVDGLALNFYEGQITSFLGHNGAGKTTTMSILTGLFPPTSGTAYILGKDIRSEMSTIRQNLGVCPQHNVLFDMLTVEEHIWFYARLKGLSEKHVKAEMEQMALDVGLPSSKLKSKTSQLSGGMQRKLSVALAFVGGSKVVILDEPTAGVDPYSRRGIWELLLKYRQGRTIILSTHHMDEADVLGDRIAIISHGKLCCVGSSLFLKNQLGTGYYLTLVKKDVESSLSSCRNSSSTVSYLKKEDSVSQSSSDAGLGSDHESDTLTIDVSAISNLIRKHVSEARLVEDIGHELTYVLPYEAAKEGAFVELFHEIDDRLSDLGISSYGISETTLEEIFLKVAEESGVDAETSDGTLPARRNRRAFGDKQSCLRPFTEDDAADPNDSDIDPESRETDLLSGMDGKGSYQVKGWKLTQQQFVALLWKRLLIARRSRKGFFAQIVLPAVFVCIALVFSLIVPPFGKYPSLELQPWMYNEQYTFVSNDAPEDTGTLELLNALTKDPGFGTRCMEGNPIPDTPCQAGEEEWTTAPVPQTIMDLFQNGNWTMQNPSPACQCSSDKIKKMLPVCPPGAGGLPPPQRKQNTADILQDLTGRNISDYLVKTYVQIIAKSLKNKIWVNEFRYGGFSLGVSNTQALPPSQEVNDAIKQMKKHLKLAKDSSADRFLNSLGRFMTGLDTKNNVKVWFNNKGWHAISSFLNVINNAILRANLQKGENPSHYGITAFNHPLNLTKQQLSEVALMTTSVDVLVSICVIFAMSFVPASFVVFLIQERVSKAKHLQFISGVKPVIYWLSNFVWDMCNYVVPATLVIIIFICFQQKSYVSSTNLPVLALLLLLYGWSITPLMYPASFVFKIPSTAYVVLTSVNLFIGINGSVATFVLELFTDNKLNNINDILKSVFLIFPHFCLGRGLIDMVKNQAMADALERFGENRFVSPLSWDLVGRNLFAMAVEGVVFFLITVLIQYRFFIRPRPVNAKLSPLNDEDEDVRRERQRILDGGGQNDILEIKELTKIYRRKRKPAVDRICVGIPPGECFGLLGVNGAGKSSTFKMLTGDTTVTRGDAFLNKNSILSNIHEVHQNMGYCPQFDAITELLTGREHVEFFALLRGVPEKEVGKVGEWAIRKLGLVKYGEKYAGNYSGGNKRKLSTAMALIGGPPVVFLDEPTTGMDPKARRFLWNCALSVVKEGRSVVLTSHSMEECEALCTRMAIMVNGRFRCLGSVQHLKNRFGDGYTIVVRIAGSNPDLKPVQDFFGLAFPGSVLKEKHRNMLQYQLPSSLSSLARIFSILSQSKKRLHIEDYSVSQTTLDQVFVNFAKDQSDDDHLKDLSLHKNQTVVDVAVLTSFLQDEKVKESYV
Description: as §1, with “control. It was analyzed how ABCA1, which mediates cholesterol transport at the plasma membrane, is involved in cholesterol accumulation. […] The prepared senescent cell models were treated with probucol (10 μM) and/or glyburide (75 μM), and immunoblotting analysis was performed on lysosome immunoprecipitates (LysoIP).” for “control.”

[3] = system: senescence-induced cells (IMR90, BJ); experiment: cholesterol measurement (Filipin staining, enzymatic measurement) in senescent cells; assay type: cell-based, human
Description: as §1, with “control. […] The prepared senescent cell models were treated with probucol (10 μM) and/or glyburide (75 μM), and immunoblotting analysis was performed on lysosome immunoprecipitates (LysoIP).” for “control.”

[4] = system: mouse primary cultured chondrocytes (SEN); experiment: SASP regulation in senescent mouse primary cultured chondrocytes (SEN); assay type: cell-based; details: probucol 10 μM, glyburide 75 μM, lovastatin 2 μM
Description: Mouse primary cultured chondrocytes were isolated from the femoral condyle and tibial plateau of 5-day-old ICR mice.
The ABCA1-deficient mouse primary chondrocyte model was prepared using siRNAs of SEQ ID NOs: 5 to 8. • ABCA1 siRNA #1: SEQ ID NO. 5 • ABCA1 siRNA #2: SEQ ID NO. 6 • ABCA1 siRNA #3: SEQ ID NO. 7 • ABCA1 siRNA #4: SEQ ID NO. 8
Senescence of chondrocytes promotes age-related musculoskeletal disorders. The correlation between cholesterol metabolism and ABCA1 was analyzed in a DNA damage-induced aging model (SEN) of mouse primary cultured chondrocytes isolated from the femoral condyles and tibial plateaus of 5-day-old ICR mice.
When ABCA1 was depleted in mouse primary cultured chondrocytes (SEN), the expression of SASP genes, including Mmp3, Mmp13 and Cxcl1, was suppressed, while the expression of Cdkn2a remained unchanged (FIG. 11B). […] Induction of cholesterol depletion inhibited the sustained activation pattern of mTORC1 (FIG. 11D), which was consistent with the results from the senescent cell model (in vitro) in Example 1. Therefore, it was confirmed that the lysosomal ABCA1 gene is a major factor in SASP regulation in vivo.

[5] = system: male mice subjected to DMM surgery (post-traumatic osteoarthritis); experiment: post-traumatic osteoarthritis progression after DMM surgery, intra-articular injection; assay type: in vivo, mouse; details: for osteoarthritis progression / cartilage destruction in knee joints (Safranin O staining) / expression levels of SASP factors (IL6, MMP13) and senescence markers (p16, nuclear HMGB1) / osteoarthritis-related pain symptoms / pain indicators: intra-articular; for osteoarthritis progression / cartilage destruction in knee joints (Safranin O staining): probucol 200 μM 10 μl weekly for 6 weeks, hydrogel with 3 mM glyburide 10 μl every 10 days for 10 weeks; for expression levels of SASP factors (IL6, MMP13) and senescence markers (p16, nuclear HMGB1) / osteoarthritis-related pain symptoms / pain indicators: probucol 200 μM weekly for 6 weeks, 3 mM glyburide hydrogel every 10 days for 10 weeks
Description: In the case of mice, male (C57BL/6J) mice were used since estrogen in female mice may influence osteoarthritis progression and serve as a confounding factor. Post-traumatic osteoarthritis was induced in 12-week-old male mice by destabilization of the medial meniscus (DMM) surgery. To investigate the role of lysosomal cholesterol partitioning regulated by ABCA1 in age-related inflammation in vivo, ABCA1 modulators were administered to male mice subjected to DMM surgery, and their effects on the progression of post-traumatic osteoarthritis were observed. Male mice subjected to either DMM surgery or sham surgery were intra-articularly injected with 10 μl of probucol (200 μM) dissolved in DMSO once a week for 6 weeks, or with 10 μl of PBS-suspended hydrogel containing 3 mM glyburide (PBS:hydrogel=1:1) every 10 days for 10 weeks. After the treatment period, the mice were sacrificed.

[6] = system: mTORC1; experiment: mTORC1 activity in senescent cells; assay type: cell-based, human
Description: as §1, with “control. […] The prepared senescent cell models were treated with probucol (10 μM) and/or glyburide (75 μM), and immunoblotting analysis was performed on lysosome immunoprecipitates (LysoIP).” for “control.”

[7] = SEN and SEN (OIS), glyburide 75 μM
[8] = DNA damage-induced senescent cells (SEN) lacking ABCA1, probucol 10 μM
[9] = intra-articular probucol 200 μM weekly for 6 weeks

Row | expression of lysosomal ABCA1 (LysoIP immunoblot) [2] | Compound | expression of CDKN2A or CDKN1A [1] | expression of SASP genes (IL1A, IL1B) [1] | SASP factors (Mmp3, Mmp13, Cxcl1) [4] | osteoarthritis progression / cartilage destruction in knee joints (Safranin O staining) [5] | expression levels of SASP factors (IL6, MMP13) and senescence markers (p16, nuclear HMGB1) [5] | osteoarthritis-related pain symptoms / pain indicators [5] | further results
1 |  | CC(C)CCC[C@@H](C)[C@H]1CC[C@H]2[C@@H]3CC=C4C[C@@H](O)CC[C@]4(C)[C@H]3CC[C@]12C [cholesterol] | little effect | significantly increased |  |  |  |  | 
2 | decrease | COc1ccc(Cl)cc1C(=O)NCCc1ccc(S(=O)(=O)NC(=O)NC2CCCCC2)cc1 [glyburide] |  |  | suppressed | alleviated | decreased | amelioration | SASP activity [1, 7]: inhibited; SASP activation / SASP factor expression induced by probucol ([1]; senescence-induced cells treated with probucol plus test substance): completely suppressed; lysosomal cholesterol accumulation [3, 7]: inhibited
3 |  | CC[C@H](C)C(=O)O[C@H]1C[C@@H](C)C=C2C=C[C@H](C)[C@H](CC[C@@H]3C[C@@H](O)CC(=O)O3)[C@H]21 [lovastatin] | without affecting | suppressed | suppressed |  |  |  | expression of the cholesterol transporter gene ABCA1 ([1]; senescent cells vs normal proliferating cells (PRO)): also suppressed
4 | further enhanced | CC(C)(Sc1cc(C(C)(C)C)c(O)c(C(C)(C)C)c1)Sc1cc(C(C)(C)C)c(O)c(C(C)(C)C)c1 [probucol] | minimal effect |  | upregulated | worsened | increased | worsened | SASP (IL1A, IL1B) activation [1, 8]: not activated; SASP activity ([1]; oncogene-induced senescent cells (SEN (OIS)), probucol 10 μM): increased; SASP activity ([1]; senescence-induced cells (SEN), probucol treatment): increased; cholesterol accumulation (lysosomal) ([3]; DNA damage-induced senescent cells (SEN), probucol 10 μM): promoted; mTORC1 activation [6, 8]: not activated; mTORC1 activity ([6]; senescence-induced cells, probucol treatment): activation; Osteoarthritis Research Society International (OARSI) grades [5, 9]: higher; dynamic and static weight-bearing capacity [5, 9]: impaired; hindlimb withdrawal threshold [5, 9]: reduced
5 |  | methyl-β-cyclodextrin [MBCD] |  | reduced |  |  |  |  | cholesterol levels ([3]; senescence-induced cells, cholesterol-depleted (MBCD+) conditions): decreased
